Results on eight compounds are retold here after ChEMBL document CHEMBL1201862, “PubChem BioAssay data set” (2004).

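Cultured in 96-well plates, cells were exposed to test compound for 48 hours across five concentrations. GI50: concentration for 50% inhibition of growth.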 Active and inactive are the calls of the source. Cut-off read from the data, not from the text of the source: active = GI50 up to about 1.1 µM and inactive = higher. A value given as a limit tells only on which side of the number the result lay.

Some test systems named below: MCF7; SR; RPMI-8226; OVCAR-5; MDA-MB-231; NCI-H226; HOP-62; DU-145; SF-539; RXF 393; UACC-62; M14; SK-OV-3; TK-10; SW-620; CCRF-CEM; EKVX; SK-MEL-2; K562; HL-60.
Test in all cases: DTP human tumour cell line panel, 48 h

Regarding `COc1ccc(-n2c(-c3ccccc3)cc(-c3cccs3)c2-c2cccs2)cc1`, the GI50 in the assay with MCF7 was > 100 µM (inactive); in the assay with SR it was > 100 µM (inactive); with RPMI-8226, > 100 µM (inactive); in the assay with OVCAR-5, > 100 µM (inactive); with MDA-MB-231 it was 10.1 µM (inactive); with NCI-H226 it was > 100 µM (inactive). Also, the GI50 in the assay on HOP-62 was > 100 µM (inactive); with DU-145, > 100 µM (inactive); in the assay with SF-539 it was 39.1 µM (inactive); in the assay with RXF 393 it was 76.9 µM (inactive); in the assay with UACC-62 it was > 100 µM (inactive); with M14, > 100 µM (inactive). Moreover, the GI50 in the assay with SK-OV-3 is > 100 µM (inactive); with TK-10, > 100 µM (inactive); in the assay on SW-620, > 100 µM (inactive); in the assay with CCRF-CEM, 0.0818 µM (active); with EKVX, > 100 µM (inactive).

On to `O=C1c2cc(Cl)ccc2-n2c(noc2=O)C2CSCN12` (centres undefined), for which the GI50 in the assay with MCF7, with SR, in the assay on RPMI-8226, in the assay with OVCAR-5, with MDA-MB-231 and with NCI-H226 was > 100 µM (inactive) throughout. Moreover, the GI50 in the assay with SK-MEL-2, in the assay on HOP-62, in the assay with DU-145, with RXF 393, in the assay on UACC-62 and in the assay with M14 was > 100 µM (inactive) throughout. The GI50 is > 100 µM (inactive) in the assay on SK-OV-3; > 100 µM (inactive) in the assay on TK-10; 55.7 µM (inactive) with K562; > 100 µM (inactive) in the assay with SW-620; > 100 µM (inactive) with CCRF-CEM; > 100 µM (inactive) with EKVX.

On to `C=C1C(=O)O[C@H]2[C@H]3O[C@@H](C[C@@H]12)[C@](C)(O)CCCC(C)=CCC[C@H]3C`, for which the GI50 is 7.26 µM (inactive) in the assay with MCF7; 28.1 µM (inactive) in the assay with SR; 3.17 µM (inactive) with RPMI-8226; 14.6 µM (inactive) in the assay on OVCAR-5; 11.7 µM (inactive) with MDA-MB-231; 18.1 µM (inactive) in the assay with NCI-H226. In addition, the GI50 in the assay on SK-MEL-2 is 15 µM (inactive); in the assay on HOP-62, 16.7 µM (inactive); in the assay on DU-145, 13.1 µM (inactive); in the assay with SF-539 it was 10.2 µM (inactive); with RXF 393, 4.91 µM (inactive); in the assay on UACC-62, 10.2 µM (inactive). Besides, the GI50 in the assay with SK-OV-3 is 19 µM (inactive); with TK-10, 3.24 µM (inactive); in the assay on K562, 6.37 µM (inactive); with SW-620, 5.13 µM (inactive); in the assay with CCRF-CEM, 0.807 µM (active); with EKVX, 10.4 µM (inactive).

`COc1cc(/C=C\C(=O)O)ccc1OCc1ccccc1`: the GI50 with HL-60, with MCF7, with SR, in the assay with RPMI-8226, in the assay with OVCAR-5 and with MDA-MB-231 was > 100 µM (inactive) in each case. The GI50 in the assay with SK-MEL-2, with HOP-62, in the assay on DU-145, with SF-539, in the assay with RXF 393 and in the assay on UACC-62 was > 100 µM (inactive) each time. Also, the GI50 in the assay on M14, in the assay with SK-OV-3, in the assay with TK-10, with K562, with SW-620 and with CCRF-CEM was > 100 µM (inactive) each time. The GI50 in the assay on EKVX is > 100 µM (inactive).

For the compound `O=C1C(Nc2ccccc2)=CC2=NCCc3n[nH]c1c32`, the GI50 was 21.1 µM (inactive) in the assay on HL-60; 26.7 µM (inactive) in the assay with MCF7; 25.2 µM (inactive) in the assay with SR; 26.4 µM (inactive) in the assay on RPMI-8226; > 100 µM (inactive) with OVCAR-5; 34.8 µM (inactive) with MDA-MB-231. Also, the GI50 was 61.7 µM (inactive) in the assay on SK-MEL-2; 91.2 µM (inactive) with HOP-62; 64 µM (inactive) with DU-145; 35.7 µM (inactive) in the assay on SF-539; > 100 µM (inactive) with RXF 393; 21.5 µM (inactive) with UACC-62. In addition, the GI50 in the assay on M14 is 46.8 µM (inactive); in the assay on SK-OV-3, > 100 µM (inactive); in the assay with TK-10, > 100 µM (inactive); with K562, 38.5 µM (inactive); in the assay with SW-620, 34.4 µM (inactive); in the assay with CCRF-CEM it was 22.3 µM (inactive). Further, the GI50 in the assay on EKVX was 41.1 µM (inactive).

Turning to `COc1ccc(Nc2nc3ccccc3nc2C(=O)O)cc1`, the GI50 in the assay with HL-60 was 63.8 µM (inactive); in the assay on MCF7, > 100 µM (inactive); in the assay on SR, 48.6 µM (inactive); in the assay with OVCAR-5 it was > 100 µM (inactive); in the assay with MDA-MB-231, > 100 µM (inactive); in the assay with SK-MEL-2 it was > 100 µM (inactive). For the same compound, the GI50 in the assay with HOP-62 was > 100 µM (inactive); with DU-145, 76.7 µM (inactive); with SF-539, > 100 µM (inactive); in the assay with RXF 393, > 100 µM (inactive); in the assay on UACC-62, > 100 µM (inactive); with M14 it was > 100 µM (inactive). The GI50 with SK-OV-3 was 9.04 µM (inactive); in the assay on TK-10, > 100 µM (inactive); in the assay with K562 it was 63.4 µM (inactive); in the assay on SW-620, 37.6 µM (inactive); with CCRF-CEM, 44 µM (inactive); with EKVX it was 54.5 µM (inactive).

On to `O=C(OCC(Cl)(Cl)Cl)O[C@@H]1CCCC1(c1ccccc1)c1ccccc1`, for which the GI50 in the assay on MCF7 was 55.1 µM (inactive); with SR it was 12.6 µM (inactive); in the assay on OVCAR-5, > 100 µM (inactive); with MDA-MB-231, > 100 µM (inactive); in the assay on NCI-H226, 37.5 µM (inactive); in the assay with HOP-62, > 100 µM (inactive). The GI50 with DU-145 is > 100 µM (inactive); in the assay on RXF 393 it was 63.2 µM (inactive); in the assay on UACC-62 it was > 100 µM (inactive); in the assay on M14, > 100 µM (inactive); in the assay with SK-OV-3 it was > 100 µM (inactive); with TK-10, > 100 µM (inactive). Also, the GI50 in the assay on K562 was 30.8 µM (inactive); in the assay on SW-620, > 100 µM (inactive); in the assay with CCRF-CEM, > 100 µM (inactive); in the assay on EKVX, > 100 µM (inactive).

Regarding `Nc1ccc(-c2nc3cc(F)ccc3s2)cc1`, the GI50 in the assay on HL-60 was 25.4 µM (inactive); in the assay with MCF7, < 0.01 µM (active); in the assay on SR it was 5.96 µM (inactive); in the assay on RPMI-8226 it was > 100 µM (inactive); with OVCAR-5, 26.4 µM (inactive); with MDA-MB-231, 22.5 µM (inactive). Moreover, the GI50 with SK-MEL-2 is 30.8 µM (inactive); with HOP-62, 18.3 µM (inactive); in the assay on DU-145 it was 30.5 µM (inactive); in the assay with SF-539 it was > 66.1 µM (inactive); with RXF 393 it was 32.3 µM (inactive); with UACC-62 it was 28.6 µM (inactive). Also, the GI50 is 71.6 µM (inactive) in the assay with M14; > 94.2 µM (inactive) with SK-OV-3; 30.5 µM (inactive) in the assay on TK-10; > 100 µM (inactive) in the assay with K562; > 100 µM (inactive) with SW-620; > 45.6 µM (inactive) in the assay with CCRF-CEM. Further, the GI50 in the assay on EKVX is 2 µM (inactive).

The GI50 is the concentration giving 50% growth inhibition.
